Test results taken from ChEMBL document CHEMBL2016451, “Antimycobacterial activity of bisbenzylisoquinoline alkaloids from Tiliacora triandra against multidrug-resistant isolates of Mycobacterium tuberculosis” (Bioorg Med Chem Lett, 2012).
Converted amounts (≈) assume the structure as drawn.

Assays:
[1] = system: Mycobacterium tuberculosis; assay: Antimycobacterial activity against p-aminosalicylic acid-resistant Mycobacterium tuberculosis H37Rv ATCC 35821 after 16 to 24 hrs by alamar blue assay; format: functional
[2] = system: Mycobacterium tuberculosis; assay: Antimycobacterial activity against Mycobacterium tuberculosis H37Rv after 16 to 24 hrs by alamar blue assay; format: functional
MRC5 [3] = assay: Cytotoxicity against human MRC5 cells at 2.1 ug/ml by MTT assay; format: cell-based
[4] = system: Mycobacterium tuberculosis; assay: Antimycobacterial activity against Mycobacterium tuberculosis H37Ra after 16 to 24 hrs by alamar blue assay; format: functional
MRC5 [5] = assay: Cytotoxicity against human MRC5 cells at 6 ug/ml by MTT assay; format: cell-based
MRC5 [6] = assay: Cytotoxicity against human MRC5 cells at 2 ug/ml by MTT assay; format: cell-based
MRC5 [7] = assay: Cytotoxicity against human MRC5 cells at 1 ug/ml by MTT assay; format: cell-based
MRC5 [8] = assay: Cytotoxicity against human MRC5 cells by MTT assay; format: cell-based

SMILES	MIC [1] [µg/mL]	MIC [2] [µg/mL]	Activity (MRC5 [3])	MIC [4] [µg/mL]	Activity (MRC5 [5])	Activity (MRC5 [6])	Activity (MRC5 [7])	IC50 (MRC5 [8]) [µg/mL]
COc1ccc2cc1-c1cc(ccc1O)C[C@@H]1NCCc3cc4c(cc31)Oc1c(c(OC)cc3c1[C@H](C2)N(C)CC3)O4	1.5 (≈ 2.67 µM)	3.1 (≈ 5.51 µM)	Non-toxic	3.1 (≈ 5.51 µM)	Non-toxic	Non-toxic	Non-toxic	3.8 (≈ 6.75 µM)
COc1ccc2cc1-c1cc(ccc1O)C[C@H]1c3cc4c(cc3CCN1C)Oc1c(OC)cc3c(c1O4)[C@H](C2)N(C)CC3 [TILIACORININE]	3.1 (≈ 5.38 µM)	6.2 (≈ 10.8 µM)	Non-toxic	3.1 (≈ 5.38 µM)	Non-toxic	Non-toxic	Non-toxic	3.13 (≈ 5.43 µM)
COc1ccc2cc1-c1cc(ccc1O)C[C@H]1c3cc4c(cc3CCN1C)Oc1c(OC)cc3c(c1O4)[C@@H](C2)N(C)CC3 [TILIACORINE]	3.1 (≈ 5.38 µM)	3.1 (≈ 5.38 µM)	Non-toxic	3.1 (≈ 5.38 µM)	Non-toxic	Non-toxic	Non-toxic	3.87 (≈ 6.71 µM)
COc1ccc2cc1-c1cc(cc(Br)c1O)C[C@H]1c3cc4c(cc3CCN1C)Oc1c(OC)cc3c(c1O4)[C@H](C2)N(C)CC3	1.5 (≈ 2.29 µM)	3.1 (≈ 4.73 µM)	Non-toxic	6.2 (≈ 9.46 µM)	Non-toxic	Non-toxic	Non-toxic	20 (≈ 30.5 µM)
